Experimental data as given in patent US8952024B2, “Herbicidal pyrimidone derivatives” (E I du Pont de Nemours and Company, priority 2009, dated 2015).

Key:
Assay in all cases: Test B pre-/postemergence plant response
Assay type in all cases: in vivo
[1] = system: blackgrass (Alopecurus myosuroides)
Method in brief: (§1)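 Seeds were sown in loam soil/sand blend and treated preemergence with compound in non-phytotoxic solvent mixture containing surfactant; postemergence sprays, same formulation, went onto plants 2 to 18 cm (1- to 4-leaf stage) in peat-based planting medium. Greenhouse 13 to 15 days, then visual rating versus untreated controls, 0 (no effect) to 100 (complete control).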

[2] = system: ragweed (common ragweed, Ambrosia elatior)
Method in brief: as §1

kochia (Kochia scoparia) = system: kochia (Kochia scoparia)
Method in brief: as §1

[3] = system: bermudagrass (Cynodon dactylon)
Method in brief: as §1

[4] = system: large crabgrass (Digitaria sanguinalis)
Method in brief: as §1

[5] = system: velvetleaf (Abutilon theophrasti)
Method in brief: as §1

[6] = system: giant foxtail (Setaria faberii)
Method in brief: as §1

[7] = system: johnsongrass (Sorghum halepense)
Method in brief: as §1

[8] = system: downy bromegrass (Bromus tectorum)
Method in brief: as §1

[9] = system: green foxtail (Setaria viridis)
Method in brief: as §1

[10] = system: Surinam grass (Brachiaria decumbens)
Method in brief: as §1

[11] = system: goosegrass (Eleusine indica)
Method in brief: as §1

corn (Zea mays) = system: corn (Zea mays)
Method in brief: as §1

[12] = system: yellow nutsedge (Cyperus esculentus)
Method in brief: as §1

[13] = system: woolly cupgrass (Eriochloa villosa)
Method in brief: as §1

[14] = system: lambsquarters (Chenopodium album)
Method in brief: as §1

[15] = system: Italian ryegrass (Lolium multiflorum)
Method in brief: as §1

[16] = 31 g ai/ha, postemergence, scale 0 to 100, 0 is no effect, 100 is complete control
[17] = 62 g ai/ha, postemergence, 0 is no effect, 100 is complete control, 13 to 15 days
[18] = Postemergence, 125 g ai/ha, visual rating after 13 to 15 days, scale 0 (no effect) to 100 (complete control)
[19] = Postemergence, 250 g ai/ha, scale 0 to 100 (0 no effect, 100 complete control)

Q: Which “Plant response rating, Blackgrass” value [1, 16] does the source give for `O=C1CCCC(O)=C1C(=O)c1cnc(C2CCCC2)n(-c2ccccc2)c1=O` [Compound 92] here?
A: 0

Q: What about the “Blackgrass plant response rating (0 to 100 scale)” value [1, 17] of the same compound?
A: 0

Q: And the “Plant response rating, Blackgrass” value [1, 18]?
A: 5

Q: And the “Plant response rating, Blackgrass” value [1, 19]?
A: 5

Q: And the “Plant response rating, Ragweed” value [2, 16]?
A: 40

Q: And the “Ragweed plant response rating (0 to 100 scale)” value [2, 17]?
A: 60

Q: And the “Plant response rating, Ragweed” value [2, 19]?
A: 75

Q: And the “Plant response rating, Kochia” value (kochia (Kochia scoparia); [16])?
A: 75

Q: What about the “Kochia plant response rating (0 to 100 scale)” value (kochia (Kochia scoparia); [17]) of the same compound?
A: 90

Q: What about the “Plant response rating, Kochia” value (kochia (Kochia scoparia); [19]) of the same compound?
A: 100

Q: What about the “Plant response rating, Bermudagrass” value [3, 16] of the same compound?
A: 20

Q: What about the “Bermudagrass plant response rating (0 to 100 scale)” value [3, 17] of the same compound?
A: 80

Q: And the “Plant response rating, Bermudagrass” value [3, 18]?
A: 85

Q: And the “Plant response rating, Bermudagrass” value [3, 19]?
A: 85

Q: And the “Plant response rating, Crabgrass, Large” value [4, 16]?
A: 80

Q: And the “Crabgrass, Large plant response rating (0 to 100 scale)” value [4, 17]?
A: 90

Q: What about the “Plant response rating, Crabgrass, Large” value [4, 18] of the same compound?
A: 98

Q: What about the “Plant response rating, Crabgrass, Large” value [4, 19] of the same compound?
A: 100

Q: What about the “Plant response rating, Velvetleaf” value [5, 16] of the same compound?
A: 95

Q: What about the “Velvetleaf plant response rating (0 to 100 scale)” value [5, 17] of the same compound?
A: 100

Q: And the “Plant response rating, Velvetleaf” value [5, 19]?
A: 100

Q: What about the “Plant response rating, Foxtail, Giant” value [6, 16] of the same compound?
A: 65

Q: And the “Foxtail, Giant plant response rating (0 to 100 scale)” value [6, 17]?
A: 75

Q: And the “Plant response rating, Foxtail, Giant” value [6, 19]?
A: 98

Q: And the “Plant response rating, Johnsongrass” value [7, 16]?
A: 20

Q: What about the “Johnsongrass plant response rating (0 to 100 scale)” value [7, 17] of the same compound?
A: 85

Q: What about the “Plant response rating, Johnsongrass” value [7, 19] of the same compound?
A: 100

Q: What about the “Plant response rating, Bromegrass, Downy” value [8, 16] of the same compound?
A: 0

Q: What about the “Bromegrass, Downy plant response rating (0 to 100 scale)” value [8, 17] of the same compound?
A: 5

Q: And the “Plant response rating, Bromegrass, Downy” value [8, 18]?
A: 20

Q: And the “Plant response rating, Bromegrass, Downy” value [8, 19]?
A: 20

Q: And the “Plant response rating, Foxtail, Green” value [9, 16]?
A: 75

Q: And the “Foxtail, Green plant response rating (0 to 100 scale)” value [9, 17]?
A: 80

Q: And the “Plant response rating, Foxtail, Green” value [9, 19]?
A: 98

Q: And the “Plant response rating, Surinam Grass” value [10, 16]?
A: 25

Q: What about the “Surinam Grass plant response rating (0 to 100 scale)” value [10, 17] of the same compound?
A: 65

Q: What about the “Plant response rating, Surinam Grass” value [10, 19] of the same compound?
A: 75

Q: And the “Plant response rating, Goosegrass” value [11, 16]?
A: 60

Q: And the “Goosegrass plant response rating (0 to 100 scale)” value [11, 17]?
A: 70

Q: What about the “Plant response rating, Goosegrass” value [11, 19] of the same compound?
A: 90

Q: And the “Plant response rating, Corn” value (corn (Zea mays); [16])?
A: 20

Q: And the “Corn plant response rating (0 to 100 scale)” value (corn (Zea mays); [17])?
A: 35

Q: What about the “Plant response rating, Corn” value (corn (Zea mays); [18]) of the same compound?
A: 45

Q: What about the “Plant response rating, Corn” value (corn (Zea mays); [19]) of the same compound?
A: 60

Q: What about the “Plant response rating, Nutsedge, Yellow” value [12, 16] of the same compound?
A: 45

Q: What about the “Nutsedge, Yellow plant response rating (0 to 100 scale)” value [12, 17] of the same compound?
A: 65

Q: What about the “Plant response rating, Nutsedge, Yellow” value [12, 19] of the same compound?
A: 75

Q: What about the “Plant response rating, Cupgrass, Woolly” value [13, 16] of the same compound?
A: 10

Q: And the “Cupgrass, Woolly plant response rating (0 to 100 scale)” value [13, 17]?
A: 25

Q: What about the “Plant response rating, Cupgrass, Woolly” value [13, 18] of the same compound?
A: 65

Q: And the “Plant response rating, Cupgrass, Woolly” value [13, 19]?
A: 70

Q: And the “Plant response rating, Lambsquarters” value [14, 16]?
A: 90

Q: What about the “Lambsquarters plant response rating (0 to 100 scale)” value [14, 17] of the same compound?
A: 98

Q: And the “Plant response rating, Lambsquarters” value [14, 19]?
A: 100

Q: And the “Plant response rating, Ryegrass, Italian” value [15, 16]?
A: 0

Q: And the “Ryegrass, Italian plant response rating (0 to 100 scale)” value [15, 17]?
A: 0

Q: And the “Plant response rating, Ryegrass, Italian” value [15, 19]?
A: 30
